Laboratory results: article PMC10993276 (ACS Omega, 2024)

Columns and labels:
[1] = test system: β-glucosidase; assay: β-glucosidase inhibition assay; type: biochemical; settings: final concentration of 100 μM in every well; pH 6.8, 37 °C
[2] = target: α-glucosidase (Saccharomyces cerevisiae, UniProt P53341); assay: α-glucosidase inhibition assay; type: biochemical
α-glucosidase, sequence (P53341 whole entry): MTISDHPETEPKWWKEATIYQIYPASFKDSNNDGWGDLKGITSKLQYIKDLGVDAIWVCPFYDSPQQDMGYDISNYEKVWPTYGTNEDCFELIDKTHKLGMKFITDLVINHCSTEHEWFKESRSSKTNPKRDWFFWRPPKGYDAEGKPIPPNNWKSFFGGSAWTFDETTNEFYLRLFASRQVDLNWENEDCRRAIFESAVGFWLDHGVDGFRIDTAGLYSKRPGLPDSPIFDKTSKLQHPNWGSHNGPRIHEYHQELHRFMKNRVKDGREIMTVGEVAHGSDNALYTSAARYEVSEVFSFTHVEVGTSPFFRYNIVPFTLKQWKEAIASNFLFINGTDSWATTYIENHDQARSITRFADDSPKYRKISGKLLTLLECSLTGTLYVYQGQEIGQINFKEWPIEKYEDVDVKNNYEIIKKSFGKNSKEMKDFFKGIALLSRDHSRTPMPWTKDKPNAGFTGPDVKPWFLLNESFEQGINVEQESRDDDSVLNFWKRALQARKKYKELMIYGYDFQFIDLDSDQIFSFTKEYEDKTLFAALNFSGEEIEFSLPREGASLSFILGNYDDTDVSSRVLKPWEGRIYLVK

Row | Compound | β-glucosidase % age inhibition [1] [%] | IC50 [2] [µM] | α-glucosidase inhibitory efficacy, folds stronger than acarbose ([2]; ratio of IC50 values versus acarbose) [folds]
1 | COc1cc(C(=O)N=c2scc(-c3ccc(F)cc3)n2-c2ccc(F)c(Cl)c2)cc(OC)c1OC [6a, N-(3-(3-Chloro-4-fluorophenyl)-4-(4-fluorophenyl)thiazol-2(3H)-ylidene)-3,4,5-trimethoxybenzamide] | 11.2 | 18.2 ± 0.02 | –
2 | COc1cc(C(=O)N=c2scc(-c3ccc(F)cc3)n2-c2cccc(F)c2)cc(OC)c1OC [6i, N-(3-(3-Fluorophenyl)-4-(4-fluorophenyl)thiazol-2(3H)-ylidene)-3,4,5-trimethoxybenzamide] | 15.4 | 8.31 ± 0.13 | –
3 | O=C(N=c1scc(-c2ccc(F)cc2)n1-c1ccc(F)c(Cl)c1)c1ccccc1F [6j, N-(3-(3-Chloro-4-fluorophenyl)-4-(4-fluorophenyl)thiazol-2(3H)-ylidene)-2-fluorobenzamide] | 12.8 | 12.5 ± 0.22 | –
4 | C[C@H]1O[C@H](O[C@H]2[C@H](O)[C@@H](O)[C@@H](O[C@H]3[C@H](O)[C@@H](O)C(O)O[C@@H]3CO)O[C@@H]2CO)[C@H](O)[C@@H](O)[C@@H]1N[C@H]1C=C(CO)[C@@H](O)[C@H](O)[C@H]1O (some centres unmarked) [acarbose, reference compound] | 63.7 | – | –

More lines, now with the values ahead:

Row | β-glucosidase % age inhibition [1] [%] | IC50 [2] [µM] | α-glucosidase inhibitory efficacy, folds stronger than acarbose ([2]; ratio of IC50 values versus acarbose) [folds] | Compound
5 | 24.2 | 3.23 ± 0.07 | – | O=C(N=c1scc(-c2ccc(F)cc2)n1-c1ccccc1F)c1ccccc1Cl [6b, 2-Chloro-N-(3-(2-fluorophenyl)-4-(4-fluorophenyl)thiazol-2(3H)-ylidene)benzamide]
6 | 36.3 | 2.98 ± 0.04 | – | O=C(N=c1scc(-c2ccc(F)cc2)n1-c1ccccc1F)c1ccccc1F [6c, 2-Fluoro-N-(3-(2-fluorophenyl)-4-(4-fluorophenyl)thiazol-2(3H)-ylidene)benzamide]
7 | 18.6 | 1.47 ± 0.05 | ~24 | O=C(N=c1scc(-c2ccc(F)cc2)n1-c1ccccc1F)c1cccc(F)c1 [6d, 3-Fluoro-N-(3-(2-fluorophenyl)-4-(4-fluorophenyl) Thiazol-2(3H)-ylidene)benzamide]
8 | 9.33 | 2.1 ± 0.06 | – | COc1cc(C(=O)N=c2scc(-c3ccc(F)cc3)n2-c2ccc(F)cc2)cc(OC)c1OC [6e, N-(3,4-Bis(4-fluorophenyl)thiazol-2(3H)-ylidene)-3,4,5-trimethoxybenzamide]
9 | 20.1 | 3.16 ± 0.15 | – | O=C(N=c1scc(-c2ccc(F)cc2)n1-c1ccc(F)c(Cl)c1)c1ccc(F)cc1 [6g, N-(3-(3-Chloro-4-fluorophenyl)-4-(4-fluorophenyl)thiazol-2(3H)-ylidene)-4-fluorobenzamide]
10 | 17.5 | 4.33 ± 0.19 | – | O=C(N=c1scc(-c2ccc(F)cc2)n1-c1ccc(F)cc1)c1ccccc1Cl [6h, N-(3,4-Bis(4-fluorophenyl) Thiazol-2(3H)-ylidene)-2-chlorobenzamide]
